Earlier results on four compounds are cited in paper PMC9276671, “A first-in-human Phase I dose-escalation trial of the novel therapeutic peptide, ALM201, demonstrates a favourable safety profile in unselected patients with ovarian cancer and other advanced solid tumours” (British Journal of Cancer, 2022).

For orientation: IC50 means the concentration needed to halve the response being measured.

In data set [1] the test system is tubulin. Also noted: method as in Investigator brochure (IB). The settings on record: ref Investigator brochure (IB), cited from earlier work; for Tubulin polymerisation IC50: protocol Table 3; for IC50: protocol Table 2, read-out: Tubulin polymerisation IC50.
Data set [2] relates to HMEC-1, a human vascular endothelial cell-line. The settings on record: protocol Table 3; ref Investigator brochure (IB); read-out: Wound scrape IC50; cited from earlier work. From the text: page 37: Almac Discovery Confidential There are five main histological subtypes of ovarian cancer differing in tissue of origin, stage of presentation, sensitivity to chemotherapy, survival and driver genetic mutations. The most aggressive of these subtypes are the high grade serous tumours. […] ALM201 also had no effect on cytok ...

In data set [3] the test system is HMEC-1. The settings on record: protocol Table 3; ref Investigator brochure (IB); read-out: Tube formation IC50; cited from earlier work. From the text:
(§1) ALM201 also had no effect on cytok ...

The test system of data set [4] is proliferation. The settings on record: protocol Table 3; ref Investigator brochure (IB); cited from earlier work.
Excerpt: as §1

Data set [5] concerns cell viability. Conditions: protocol Table 2; ref Investigator brochure (IB); cited from earlier work.
Excerpt: as §1

In data set [6] the test system is cell cycle. The settings on record: protocol Table 2 (IC50 (nM)); ref Investigator brochure (IB); cited from earlier work.
Excerpt: as §1

For `CCN(CC)CCNC(=O)c1c(C)[nH]c(/C=C2\C(=O)Nc3ccc(F)cc32)c1C` [Sunitinib], in data set [1], the “Tubulin polymerisation IC50” value is on record as “No effect”. Moreover, the 50% inhibitory concentration (IC50) in data set [2] is 8.9 nM; in data set [3] it was 4.4 nM; in data set [4], […].

In the case of `COc1ccc(C[C@@H](O)c2cc(OC)c(OC)c(OC)c2)cc1O` [Combretastatin], the IC50 in data set [1] is 360 nM; in data set [5], 0.2 nM. Besides, the Cell cycle arrest result in data set [6] is reported as “Yes”.

On to Bevacizumab, for which the “Tubulin polymerisation IC50” value in data set [1] is on record as “No effect”. For the same compound, the IC50 in data set [2] was 59 nM; in data set [3], 2400 nM; in data set [4], 158 nM.

On to `CC[C@]1(O)C[C@@H]2CN(CCc3c([nH]c4ccccc34)[C@@](C(=O)OC)(c3cc4c(cc3OC)N(C)[C@H]3[C@@](O)(C(=O)OC)[C@H](OC(C)=O)[C@]5(CC)C=CCN6CC[C@]43[C@@H]65)C2)C1` [Vinblastine], for which the 50% inhibitory concentration (IC50) is […] in data set [1] and 0.02 nM in data set [5]. Moreover, the Cell cycle arrest entry in data set [6] is recorded as “Yes”.
